# Assay results as given in patent US5725871A, “Drug delivery compositions comprising lysophosphoglycerolipid” (Danbiosyst UK Limited, priority 1989, dated 1998).
# Conditions: sheep, intranasal 2.0 IU/kg insulin, LPG versus LPC
# Protocol: The sheep were divided into 4 groups of 5 animals each. Group 1 received 2.0 IU/kg insulin together with 2.0 mg/kg SMS 45/25 microspheres (Pharmacia) and 0.2 mg/kg LPC (Formulation 1) intranasally in the form of a lyophilised powder. A sheep of 50 kg thus received 100 IU of insulin together with 100 mg SMS 45/25 microspheres and 10.0 mg LPC. Group 2 received 2.0 IU/kg insulin together with 2.0 mg/kg SMS 45/25 microspheres and 0.2 mg/kg LPG Formulation 2) intranasally in the form of a lyophilised powder. A sheep of 50 kg thus received 100 IU of insulin together with 100 mg SMS 45/25 microspheres and 10.0 mg LPG. Group 3 received 2.0 IU/kg insulin together with 0.02 mg/kg LPC (Formulation 3) intranasally in the form of a solution at 0.01 ml/kg. A sheep of 50 kg thus received 100 IU of insulin together with 1.0 mg LPC in a volume of 0.5 ml. Group 4 received 2.0 IU/kg insulin together with 0.02 mg/kg LPG (Formulation 4) intranasally in the form of a solution at 0.01 ml/kg. A sheep of 50 kg thus received 100 IU of insulin together with 1.0 mg LPG in a volume of 0.5 ml. […]
# Sedation/Blood Sampling: For the intranasal studies, the sheep were sedated by use of an i.v. dose of ketamine hydrochloride (Ketalar (Regd. T.M.), 100 mg/ml injection) at 2.25 mg/kg. […] Each blood sample was divided into two parts and analysed as in Example 1.
substance,measurement,value
L-α-lysophosphatidyl-DL-glycerol [LPG],Plasma glucose levels,lower (i.e. better) with LPG
